Data taken from patent US20180000085A1, “USE OF PICOLINAMIDE COMPOUNDS WITH FUNGICIDAL ACTIVITY” (DOW AGROSCIENCES LLC, priority 2014, published 2018).

Assays:
Zymoseptoria tritici = test: Leaf blotch of wheat (SEPTTR) disease control on wheat seedlings; assay type: in vivo; design: key to SEPTTR 1DP, HV activity at 100 ppm (% control rating) / SEPTTR 3DC, HV activity at 100 ppm (% control rating) / SEPTTR disease control, 1DP / SEPTTR disease control, 3DC / SEPTTR 1DP disease control rating, HV activity / SEPTTR 3DC disease control rating, HV activity / SEPTTR 3DC, LV activity at 125.1 g/H (% Control rating) / SEPTTR 1DP, LV activity at 125.1 g/H (% Control rating) / SEPTTR 1DP disease control rating, LV activity at 125.1 g/H / SEPTTR 3DC disease control rating, LV activity at 125.1 g/H / SEPTTR 3DC disease control rating, HV activity at 100 ppm / SEPTTR 1DP disease control rating, HV activity at 100 ppm / HV activity at 100 ppm SEPTTR 3DC (disease control rating) / HV activity at 100 ppm SEPTTR 1DP (disease control rating) / LV activity at 125.1 g/H SEPTTR 1DP (disease control rating) / LV activity at 125.1 g/H SEPTTR 3DC (disease control rating): A: > 80; B: ≤ 80; C: Not Tested; D: No Activity Observed in the Reported Assay; settings: for SEPTTR 1DP disease control rating, HV activity / SEPTTR 3DC disease control rating, HV activity: HV application at 100 ppm; for SEPTTR 1DP disease control rating, HV activity at 100 ppm / SEPTTR 3DC disease control rating, HV activity at 100 ppm: high volume application; for SEPTTR 1DP disease control rating, HV activity at 100 ppm / SEPTTR 1DP disease control rating, LV activity at 125.1 g/H: 1 day protectant; for SEPTTR 3DC disease control rating, HV activity at 100 ppm / SEPTTR 3DC disease control rating, LV activity at 125.1 g/H: 3 day curative
Puccinia triticina = test: Wheat brown rust (PUCCRT) disease control on wheat seedlings; assay type: in vivo; design: key to PUCCRT 3DC, HV activity at 100 ppm (% control rating) / PUCCRT disease control, 3DC / PUCCRT 1DP disease control rating, HV activity / PUCCRT 3DC disease control rating, HV activity / PUCCRT 3DC, LV activity at 125.1 g/H (% Control rating) / PUCCRT 1DP, LV activity at 125.1 g/H (% Control rating) / PUCCRT 3DC disease control rating, LV activity at 125.1 g/H / PUCCRT 1DP disease control rating, LV activity at 125.1 g/H / PUCCRT 3DC disease control rating, HV activity at 100 ppm / PUCCRT 1DP disease control rating, HV activity at 100 ppm / HV activity at 100 ppm PUCCRT 3DC (disease control rating) / LV activity at 125.1 g/H PUCCRT 1DP (disease control rating) / LV activity at 125.1 g/H PUCCRT 3DC (disease control rating): A: > 80; B: ≤ 80; C: Not Tested; D: No Activity Observed in the Reported Assay; settings: for PUCCRT 1DP disease control rating, HV activity / PUCCRT 3DC disease control rating, HV activity: HV application at 100 ppm; for PUCCRT 1DP disease control rating, HV activity at 100 ppm / PUCCRT 3DC disease control rating, HV activity at 100 ppm: high volume application; for PUCCRT 1DP disease control rating, HV activity at 100 ppm / PUCCRT 1DP disease control rating, LV activity at 125.1 g/H: 1 day protectant; for PUCCRT 3DC disease control rating, HV activity at 100 ppm / PUCCRT 3DC disease control rating, LV activity at 125.1 g/H: 3 day curative
[1] = 1 Day Protectant, wheat leaf blotch
[2] = 3 Day Curative, wheat leaf blotch
[3] = 1 Day Protectant, wheat brown rust
[4] = 3 Day Curative, wheat brown rust
[5] = low volume application, 125.1 g/H, 1 Day Protectant
[6] = low volume application, 125.1 g/H, 3 Day Curative
[7] = low volume application, 125.1 g/H

COc1ccnc(C(=O)NC(C)C(=O)OC(C)C(Oc2cccc3ccccc23)C(C)C)c1O (stereo not drawn) [Cmpd 397]
SEPTTR 1DP disease control rating, HV activity (Zymoseptoria tritici; [1]): B (≤ 80) | SEPTTR 3DC disease control rating, HV activity (Zymoseptoria tritici; [2]): B (≤ 80) | PUCCRT 1DP disease control rating, HV activity (Puccinia triticina; [3]): A (> 80) | PUCCRT 3DC disease control rating, HV activity (Puccinia triticina; [4]): A (> 80)

COc1ccnc(C(=O)N[C@@H](C)C(=O)O[C@@H](C)[C@@H](CC(C)C)Oc2cccc(F)c2)c1OC(C)=O [Cmpd 1113]
LV activity at 125.1 g/H SEPTTR 1DP (disease control rating) (Zymoseptoria tritici; low volume application, 125.1 g/H, 1 Day Protectant, wheat leaf blotch): A (> 80) | LV activity at 125.1 g/H SEPTTR 3DC (disease control rating) (Zymoseptoria tritici; low volume application, 125.1 g/H, 3 Day Curative, wheat leaf blotch): A (> 80) | LV activity at 125.1 g/H PUCCRT 1DP (disease control rating) (Puccinia triticina; low volume application, 125.1 g/H, 1 Day Protectant, wheat brown rust): A (> 80) | LV activity at 125.1 g/H PUCCRT 3DC (disease control rating) (Puccinia triticina; low volume application, 125.1 g/H, 3 Day Curative, wheat brown rust): A (> 80)

CCC(CC)[C@@H](Oc1ccc(F)cc1)[C@H](C)OC(=O)[C@@H](NC(=O)c1nccc(OC)c1OC(C)=O)C(C)C [Cmpd 657]
SEPTTR 1DP, LV activity at 125.1 g/H (% Control rating) (Zymoseptoria tritici; [5]): A (> 80) | SEPTTR 3DC, LV activity at 125.1 g/H (% Control rating) (Zymoseptoria tritici; [6]): B (≤ 80) | PUCCRT 1DP, LV activity at 125.1 g/H (% Control rating) (Puccinia triticina; [5]): A (> 80) | PUCCRT 3DC, LV activity at 125.1 g/H (% Control rating) (Puccinia triticina; [6]): B (≤ 80)

COc1ccnc(C(=O)NC(C)C(=O)OC(C)(C)[C@H](Oc2ccccc2)C(C)C)c1O (stereo partly drawn) [Cmpd 835, (R)-2,4-dimethyl-3-phenoxypentan-2-yl 2-(3-hydroxy-4-methoxypicolinamido)propanoate]
SEPTTR 1DP disease control rating, HV activity at 100 ppm (Zymoseptoria tritici): D | SEPTTR 3DC disease control rating, HV activity at 100 ppm (Zymoseptoria tritici): B (≤ 80) | PUCCRT 1DP disease control rating, HV activity at 100 ppm (Puccinia triticina): A (> 80) | PUCCRT 3DC disease control rating, HV activity at 100 ppm (Puccinia triticina): A (> 80)

COc1ccnc(C(=O)N[C@@H](C)C(=O)O[C@H](C)[C@@H](Oc2ccccc2)C(C)C)c1O [Cmpd 349]
SEPTTR 1DP disease control rating, HV activity (Zymoseptoria tritici; [1]): D | SEPTTR 3DC disease control rating, HV activity (Zymoseptoria tritici; [2]): B (≤ 80) | PUCCRT 1DP disease control rating, HV activity (Puccinia triticina; [3]): D | PUCCRT 3DC disease control rating, HV activity (Puccinia triticina; [4]): D

CC(=O)OCOc1c(Cl)ccnc1C(=O)NC(C)C(=O)OC(C)C(Oc1ccccc1)C(C)C (stereo not drawn) [Cmpd 679]
SEPTTR 1DP disease control rating, LV activity at 125.1 g/H (Zymoseptoria tritici; [7]): D | SEPTTR 3DC disease control rating, LV activity at 125.1 g/H (Zymoseptoria tritici; [7]): B (≤ 80) | PUCCRT 1DP disease control rating, LV activity at 125.1 g/H (Puccinia triticina; [7]): B (≤ 80) | PUCCRT 3DC disease control rating, LV activity at 125.1 g/H (Puccinia triticina; [7]): D

CCC(CC)[C@@H](Oc1ccc(Cl)cc1)[C@H](C)OC(=O)[C@@H](NC(=O)c1nccc(OC)c1OCOC(C)=O)C(C)C [Cmpd 648]
SEPTTR 1DP, LV activity at 125.1 g/H (% Control rating) (Zymoseptoria tritici; [5]): B (≤ 80) | SEPTTR 3DC, LV activity at 125.1 g/H (% Control rating) (Zymoseptoria tritici; [6]): A (> 80) | PUCCRT 1DP, LV activity at 125.1 g/H (% Control rating) (Puccinia triticina; [5]): A (> 80) | PUCCRT 3DC, LV activity at 125.1 g/H (% Control rating) (Puccinia triticina; [6]): B (≤ 80)

CCC(CC)[C@@H](Oc1ccc(-c2ccccc2)cc1)[C@H](C)OC(=O)[C@@H](NC(=O)c1nccc(OC)c1OCOC(C)=O)C(C)C [Cmpd 655]
SEPTTR 1DP, LV activity at 125.1 g/H (% Control rating) (Zymoseptoria tritici; [5]): A (> 80) | SEPTTR 3DC, LV activity at 125.1 g/H (% Control rating) (Zymoseptoria tritici; [6]): B (≤ 80) | PUCCRT 1DP, LV activity at 125.1 g/H (% Control rating) (Puccinia triticina; [5]): A (> 80) | PUCCRT 3DC, LV activity at 125.1 g/H (% Control rating) (Puccinia triticina; [6]): B (≤ 80)

COc1ccnc(C(=O)N[C@@H](C)C(=O)O[C@@H](C)[C@@H](OC(=O)c2ccccc2)C(C)C)c1OCOC(C)=O [Cmpd 851]
SEPTTR 1DP disease control rating, LV activity at 125.1 g/H (Zymoseptoria tritici; [7]): D | SEPTTR 3DC disease control rating, LV activity at 125.1 g/H (Zymoseptoria tritici; [7]): D | PUCCRT 1DP disease control rating, LV activity at 125.1 g/H (Puccinia triticina; [7]): B (≤ 80) | PUCCRT 3DC disease control rating, LV activity at 125.1 g/H (Puccinia triticina; [7]): B (≤ 80)

COc1ccnc(C(=O)NC(C)C(=O)OC(C)C(Oc2ccc(F)cc2)c2ccc(F)cc2)c1O (mixture of isomers) [Cmpd 838]
SEPTTR 1DP disease control rating, HV activity at 100 ppm (Zymoseptoria tritici): A (> 80) | SEPTTR 3DC disease control rating, HV activity at 100 ppm (Zymoseptoria tritici): A (> 80) | PUCCRT 1DP disease control rating, HV activity at 100 ppm (Puccinia triticina): A (> 80) | PUCCRT 3DC disease control rating, HV activity at 100 ppm (Puccinia triticina): B (≤ 80)

CCC(CC)C(Oc1cccc(F)c1)C(C)OC(=O)C(CC(C)C)NC(=O)c1nccc(OC)c1OCOC(C)=O (stereo not drawn) [Cmpd 680]
SEPTTR 1DP disease control rating, LV activity at 125.1 g/H (Zymoseptoria tritici; [7]): B (≤ 80) | SEPTTR 3DC disease control rating, LV activity at 125.1 g/H (Zymoseptoria tritici; [7]): B (≤ 80) | PUCCRT 1DP disease control rating, LV activity at 125.1 g/H (Puccinia triticina; [7]): D | PUCCRT 3DC disease control rating, LV activity at 125.1 g/H (Puccinia triticina; [7]): B (≤ 80)

COc1ccnc(C(=O)N[C@@H](C)C(=O)O[C@@H](C)[C@H](Oc2ccc3ccccc3c2)C(C)C)c1OC(C)=O [Cmpd 632]
SEPTTR 1DP, LV activity at 125.1 g/H (% Control rating) (Zymoseptoria tritici; [5]): D | SEPTTR 3DC, LV activity at 125.1 g/H (% Control rating) (Zymoseptoria tritici; [6]): D | PUCCRT 1DP, LV activity at 125.1 g/H (% Control rating) (Puccinia triticina; [5]): A (> 80) | PUCCRT 3DC, LV activity at 125.1 g/H (% Control rating) (Puccinia triticina; [6]): A (> 80)
